Where a name gives a salt, the structure may show the parent alone.
Tests used:
Assay in all cases: MIC, NCCLS broth microdilution
Type in all cases: cell-based
[1] = test system: Acinetobacter sp. J2; settings: for MIC of antibiotic at fixed inhibitor concentration (4 mg/L): Acinetobacter sp. J2, MIC of antibiotic compound 1 with the labelled bridged monobactam of formula II and clavulanate, 4 mg/L each; for MIC of antibiotic / MIC of antibiotic at fixed inhibitor concentration of 4 mg/L: Acinetobacter baumannii J2; for MIC of antibiotic: antibiotic alone, no inhibitor; for MIC of antibiotic at fixed inhibitor concentration of 4 mg/L: with 102 and clavulanate
[2] = test system: Pseudomonas aeruginosa MK1184; settings: for MIC of antibiotic at fixed inhibitor concentration (4 mg/L): MIC of antibiotic compound 1 with the labelled bridged monobactam of formula II and clavulanate, 4 mg/L each; for MIC of antibiotic: antibiotic alone, no inhibitor; for MIC of antibiotic at fixed inhibitor concentration of 4 mg/L: with 102 and clavulanate
[3] = test system: Pseudomonas aeruginosa 1973E; settings: for MIC of antibiotic at fixed inhibitor concentration (4 mg/L): MIC of antibiotic compound 1 with the labelled bridged monobactam of formula II and clavulanate, 4 mg/L each; for MIC of antibiotic: antibiotic alone, no inhibitor; for MIC of antibiotic at fixed inhibitor concentration of 4 mg/L: with 102 and clavulanate
Outline: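 Growth inhibition read by eye after overnight incubation (30° C. or 37° C.) defines the MIC, using NCCLS M7-A5 broth microdilution with ≤1% DMSO. When combinations were tested, only the formula I compound was titrated and each partner was fixed at 4 μg/mL.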

[4] = test system: Enterobacter cloacae P99; settings: for MIC of antibiotic at fixed inhibitor concentration (4 mg/L): MIC of antibiotic compound 1 with the labelled bridged monobactam of formula II and clavulanate, 4 mg/L each; for MIC of antibiotic: antibiotic alone, no inhibitor; for MIC of antibiotic at fixed inhibitor concentration of 4 mg/L: with 102 and clavulanate
[5] = test system: Klebsiella pneumoniae CF104; settings: for MIC of antibiotic at fixed inhibitor concentration (4 mg/L): MIC of antibiotic compound 1 with the labelled bridged monobactam of formula II and clavulanate, 4 mg/L each; for MIC of antibiotic: antibiotic alone, no inhibitor; for MIC of antibiotic at fixed inhibitor concentration of 4 mg/L: with 102 and clavulanate
Description: Antimicrobial activity of the compounds and of their combinations was determined against a selection of organisms according to the standard procedures described by the National Committee for Clinical Laboratory Standards (National Committee for Clinical Laboratory. Standards (2000). Methods for Dilution Antimicrobial Susceptibility Tests for Bacteria That Grow Aerobically-Fifth Edition: Approved Standard M7-A5. NCCLS, Wayne, Pa., USA).
In all cases the final concentration of DMSO incubated with the bacteria is less than or equal to 1%. […] Plates were incubated overnight at an appropriate temperature (30° C. or 37° C.) and optical densities assessed by eye. The MIC value is defined as the lowest compound concentration completely inhibiting visible growth of the test organism. When combinations between compounds of formula I with compounds of formula II and are evaluated the compounds of formula I are tested in dilution series as described above while the compounds of formula II and III-XIII were present in all wells at a constant concentration of 4 μg/mL each.

[6] = test system: Serratia marcescens S6; settings: for MIC of antibiotic at fixed inhibitor concentration (4 mg/L): MIC of antibiotic compound 1 with the labelled bridged monobactam of formula II and clavulanate, 4 mg/L each; for MIC of antibiotic: antibiotic alone, no inhibitor; for MIC of antibiotic at fixed inhibitor concentration of 4 mg/L: with 102 and clavulanate
[7] = test system: Stenotrophomonas malthophilia 1AC736; settings: for MIC of antibiotic at fixed inhibitor concentration (4 mg/L): Stenotrophomonas malthophilia 1AC736, MIC of antibiotic compound 1 with the labelled bridged monobactam of formula II and clavulanate, 4 mg/L each; for MIC of antibiotic / MIC of antibiotic at fixed inhibitor concentration of 4 mg/L: Stenotrophomonas maltophilia 1AC736; for MIC of antibiotic: antibiotic alone, no inhibitor; for MIC of antibiotic at fixed inhibitor concentration of 4 mg/L: with 102 and clavulanate

Row | Structure (SMILES) | MIC of antibiotic at fixed inhibitor concentration (4 mg/L) [1] | MIC of antibiotic at fixed inhibitor concentration (4 mg/L) [2] | MIC of antibiotic at fixed inhibitor concentration (4 mg/L) [3] | MIC of antibiotic at fixed inhibitor concentration (4 mg/L) [4] | MIC of antibiotic at fixed inhibitor concentration (4 mg/L) [5] | MIC of antibiotic at fixed inhibitor concentration (4 mg/L) [6] | MIC of antibiotic at fixed inhibitor concentration (4 mg/L) [7] | further results
1 | NC(=O)c1ccc(NC(=O)N2CC[C@@H]3[C@H]2C(=O)N3S(=O)(=O)[O-])cc1.[Na+] [Compound 311] | 4 µg/mL | >32 µg/mL | 4 µg/mL | 8 µg/mL | 0.5 µg/mL | 0.25 µg/mL | 0.125 µg/mL | 
2 | CC(C)c1cc[n+](CC(=O)N2CC[C@@H]3[C@H]2C(=O)N3S(=O)(=O)[O-])cc1 [Compound 113, (1S,5R)-2-{2-[4-(isopropyl)pyridinium]acetyl}-7-oxo-2,6-diazabicyclo[3.2.0]heptane-6-sulfonate, inner salt] | >32 µg/mL | >32 µg/mL | 4 µg/mL | 32 µg/mL | 0.125 µg/mL | 0.25 µg/mL | 0.25 µg/mL | 
3 | NC(=O)c1cc[n+](CC(=O)N2CC[C@@H]3[C@H]2C(=O)N3S(=O)(=O)[O-])cc1C(N)=O [Compound 110, (1S,5R)-2-[2-(3,4-dicarbamoylpyridinium)acetyl]-7-oxo-2,6-diazabicyclo[3.2.0]heptane-6-sulfonate, inner salt] | 2 µg/mL | 32 µg/mL | 4 µg/mL | >32 µg/mL | 0.125 µg/mL | 0.25 µg/mL | 0.125 µg/mL | 
4 | Nc1nc(C(=NOCc2cc(=O)c(O)cn2O)C(=O)NC2CN(S(=O)(=O)O)C2=O)cs1 (stereo not drawn) [Compound 9] |  |  |  |  |  |  |  | MIC of antibiotic [1]: >32 µg/mL; MIC of antibiotic at fixed inhibitor concentration of 4 mg/L [1]: >32 µg/mL; MIC of antibiotic [2]: >32 µg/mL; MIC of antibiotic at fixed inhibitor concentration of 4 mg/L [2]: 4 µg/mL; MIC of antibiotic [3]: 8 µg/mL; MIC of antibiotic at fixed inhibitor concentration of 4 mg/L [3]: 8 µg/mL; MIC of antibiotic [4]: >32 µg/mL; MIC of antibiotic at fixed inhibitor concentration of 4 mg/L [4]: 32 µg/mL; MIC of antibiotic [5]: >32 µg/mL; MIC of antibiotic at fixed inhibitor concentration of 4 mg/L [5]: 0.5 µg/mL; MIC of antibiotic [6]: 16 µg/mL; MIC of antibiotic at fixed inhibitor concentration of 4 mg/L [6]: 1 µg/mL; MIC of antibiotic [7]: 0.5 µg/mL; MIC of antibiotic at fixed inhibitor concentration of 4 mg/L [7]: 0.25 µg/mL
5 | COn1cc(O)c(=O)cc1CON=C(C(=O)N[C@@H]1C(=O)N(S(=O)(=O)O)[C@H]1C)c1csc(N)n1 [Compound 5, (3S,4S)-3-{2-(2-amino(1,3-thiazol-4-yl))-3-[(5-hydroxy-1-methoxy-4-oxo(2-hydropyridyl))methoxy]-3-azaprop-2-enoylamino}-4-methyl-2-oxoazetidinesulfonic acid] |  |  |  |  |  |  |  | MIC of antibiotic [1]: >32 µg/mL; MIC of antibiotic at fixed inhibitor concentration of 4 mg/L [1]: 32 µg/mL; MIC of antibiotic [2]: >32 µg/mL; MIC of antibiotic at fixed inhibitor concentration of 4 mg/L [2]: >32 µg/mL; MIC of antibiotic [3]: >32 µg/mL; MIC of antibiotic at fixed inhibitor concentration of 4 mg/L [3]: >32 µg/mL; MIC of antibiotic [4]: 32 µg/mL; MIC of antibiotic at fixed inhibitor concentration of 4 mg/L [4]: 8 µg/mL; MIC of antibiotic [5]: >32 µg/mL; MIC of antibiotic at fixed inhibitor concentration of 4 mg/L [5]: 8 µg/mL; MIC of antibiotic [6]: 8 µg/mL; MIC of antibiotic at fixed inhibitor concentration of 4 mg/L [6]: 1 µg/mL; MIC of antibiotic [7]: 16 µg/mL; MIC of antibiotic at fixed inhibitor concentration of 4 mg/L [7]: 4 µg/mL
6 | CN(C)n1ccc(SCC(=O)N2CC[C@@H]3[C@H]2C(=O)N3S(=O)(=O)O)nc1=O [Compound 203, (1S,5R)-2-{2-[1-(dimethylamino)-2-oxohydropyrimidin-4-ylthio]acetyl}-7-oxo-2,6-diazabicyclo[3.2.0]heptane-6-sulfonic acid] | 2 µg/mL | 32 µg/mL | 4 µg/mL | 32 µg/mL | 1 µg/mL | 0.25 µg/mL | 8 µg/mL | 
7 | NC(=O)c1cnccc1C(=O)NCC(=O)N1CC[C@@H]2[C@H]1C(=O)N2S(=O)(=O)O [Compound 402, (1S,5R)-2-{2-[(3-carbamoylpyridyl-4)carbonylamino]acetyl}-7-oxo-2,6-diazabicyclo[3.2.0]heptane-6-sulfonic acid] | 8 µg/mL | 32 µg/mL | 4 µg/mL | 32 µg/mL | <0.06 µg/mL | 0.25 µg/mL | <0.06 µg/mL | 

Reference: patent US20160122320A1, “USEFUL COMBINATIONS OF MONOBACTAM ANTIBIOTICS WITH BETA-LACTAMASE INHIBITORS” (Basilea Pharmaceutica AG, priority 2005, published 2016)
